Patent US5503852A, “Method for making self-assembling diketopiperazine drug delivery system” (Pharmaceutical Discovery Corporation, priority 1994, dated 1996)

Assays:
[1] = Blood glucose levels after insulin; format: in vivo, rats; settings: subcutaneous; 100 μg insulin/kg
Description: Porcine insulin (Sigma Chemical Co., St. Louis, Mo., Catalog No. 1 3505, specific activity: approximately 24 IU/mg) was encapsulated in 2,5-diketo- 3,6-di (4-fumarylamino)piperazine, prepared using the same method in Example 1, by dissolving the diketopiperazine in sodium bicarbonate to form a solution containing 12.5 mg diketopiperazine/ml solution. This solution was then mixed with an equal volume of citric acid solution containing porcine insulin at a concentration of 0.172 mg insulin/ml citric acid to form a white precipitate. The product was collected by centrifuge and washed once with 200 ml of deionized water, and then dried overnight in the lyophilizer. The product was assayed by HPLC and found to contain 1.6% insulin by weight.
In total, three male rats weighing about 200 g each were each administered a dose of 100 μg insulin/kg body weight. The dose was given subcutaneously and also as insulin encapsulated in diketopiperazine. Control animals received only the diketopiperazine and the vehicle, phosphate buffered saline. Blood glucose levels were measured on samples taken from the tail vein at various times after treatment and measured as mg of glucose/dl blood using one drop of tail blood squeezed onto a Glucofilm™ strip.

[2] = at clinically effective concentrations; cited from earlier work
[3] = Solubility in aqueous media; format: physicochemical

Question: For “encapsulated insulin by subcutaneous injection: Porcine insulin (Sigma Chemical Co.), given subcutaneously”, which blood glucose level [1] is on record?
Answer: A marked decrease in blood glucose level

Question: With `NC(=O)OCC(COC(N)=O)c1ccccc1` [felbamate] as the molecule, how does the “solubility in aqueous media” value [2] read?
Answer: not soluble in aqueous media at clinically effective concentrations

Question: Which solubility ([3]; acidic aqueous solutions) does the source give for `O=C(O)CCC(=O)NCCCCC1NC(=O)C(CCCCNC(=O)CCC(=O)O)NC1=O` (stereo not shown) [2,5-diketo-3,6-di(4-succinylaminobutyl)piperazine] here?
Answer: quite insoluble in acidic aqueous solutions

Question: What about the solubility ([3]; weakly alkaline aqueous solution) of the same molecule?
Answer: readily soluble in weakly alkaline aqueous solution
